Here are results for four compounds from paper PMC6789782, “Safety Pharmacological Evaluation of the Coffee Component, Caffeoylquinic Acid, and Its Metabolites, Using Ex Vivo and In Vitro Profiling Assays” (Pharmaceuticals, 2019).

Data set [1] relates to GI transit and gastric emptying. To be noted: rats; dose-dependent manner; cited from earlier work.
In another data set the test system is rat hippocampal slices. Put plainly: Electrophysiological assay of hippocampal slices, population spike (PS) recording. On the procedure:
All animals were housed and used in accordance with the French and European legislations for animal care. Rats (Janvier Labs, Le Genest-Saint-Isle, France) were euthanized by fast decapitation, without prior anesthesia. The brain was quickly removed and soaked in ice-cold oxygenated buffer containing KCl 2 mM, NaH2PO4 1.2 mM, MgCl2 7 mM, CaCl2 0.5 mM, NaHCO3 26 mM, glucose 11 mM, and sucrose 250 mM. […] During the experiments, slices were perfused with oxygenated artificial cerebrospinal fluid at 37 °C at a rate of 3 mL/min. The tested slice numbers were > 2 for 100 µM, > 4 for 10 µM, and > 6 for 1 µM (follow-up study). All experiments were carried out with 3-dimensional multielectrode array (Qwane Biosciences S.A., Lausanne, Switzerland) and data were recorded with a commercially available multielectrode array set-up from MultiChannel Systems (MCS GmbH, Reutlingen, Germany).
A hippocampal slice was placed on the multielectrode array (100 μm distant electrodes). One electrode was chosen to stimulate schaffer collaterals (SC) at the CA1 border. The stimulus in a monopolar biphasic current pulse (−300 μA for 60 μs followed by +300 μA for 60 μs) was applied at 30-s intervals. An Input/Output (I/O) curve was derived before each experiment to determine the stimulation intensity. Basal stimulation intensity was then set to 100 μA higher than the minimal intensity necessary to induce PS in the pyramidal cell layer.
Then, 1 μM bicuculline, the antagonist of GABAA, was applied in the continuous presence of the compound for an additional 40-min. Control bicuculline slices were recorded in parallel and after 50 min of control recording, 1 μM bicuculline was applied for a 40-min period.
Normalized PS AUC was averaged by slices for each experiment carried out in the same conditions. PS AUC (± SEM) is expressed as a function of time. The number of PS oscillations induced at the end of the bicuculline-exposure period was determined for each electrode and averaged by slices. The results are presented as mean of the last 2 min of application. Statistical significance was measured using two-way ANOVA analysis with Sidak’s multiple comparisons test, except for the 100 µM concentration because of its small slice number.

Data set [2] concerns fundus isolated from guinea pig. Put plainly: In vitro Magnus assay, stomach fundus. The following applies: 100 µM; ± SEM; p < 0.01. On the procedure:
(§1) Guinea pigs (Japan SLC, Inc., Shizuoka, Japan) were anesthetized with pentobarbital sodium (30–50 mg/kg, i.p.) and the stomach fundi, ileums, and colons were dissected after being exsanguinated. Tissues were immediately placed in Tyrode’s solution containing NaCl 136.9 mM, KCl 2.7 mM, MgCl2.6H2O 1.2 mM, CaCl2.2H2O 2.0 mM, NaHCO3 11.9 mM, and D(+)-glucose 5.6 mM, and flushed for luminal content removal. Segments of approximately 2 cm were cut from each tissue and placed in an organ bath containing Tyrode’s solution aerated with O2:CO2 (95:5) at 32 °C. The tissue segments were connected to an isometric transducer (load, 1.0 g) to record the contractions (Nihon Kohden Corporation, Tokyo, Japan).
(§2) Maximum recording period for one condition was 20 min, and the test solution was exchanged when no effect was detected within 3 min. […] The concentration of acetylcholine was set based on preliminary experiments.

Another data set concerns rats. The following applies: two years; cited from earlier work.
In a further data set the test system is mice. The following applies: 96 weeks; cited from earlier work.
In data set [3] the test system is ileum isolated from guinea pig. The experiment in a line: In vitro Magnus assay, ileum. To be noted: 100 µM; ± SEM; p < 0.05. On the procedure:
as §1, §2

With `COc1cc(/C=C/C(=O)O)ccc1O` [FA, ferulic acid], the “Effect on GI transit and gastric emptying” value in data set [1] is listed as “significantly accelerates”. For the same compound, the Additional spike number result in the data set on rat hippocampal slices (follow-up test, 1 µM alone, single application period) is “did not trigger multiple spikes”. In addition, the “Tension in the fundus” value in data set [2] amounted to 0.089 ± 0.005 g. As to `O=C(O)/C=C/c1ccc(O)c(O)c1` [CA, caffeic acid], the “Safety pharmacological toxicity on chronic exposure” value in the data set on rats and in the data set with mice was “no safety pharmacological toxicity” each time. As for `COc1cc(/C=C/C(=O)O[C@H]2C[C@@](O)(C(=O)O)C[C@H](O)[C@@H]2O)ccc1O` [5-FQA, 5-O-feruloylquinic acid], the Additional spike number result in the data set with rat hippocampal slices (10 μM compound, co-exposure with 1 μM bicuculline) was “in the same range as the bicuculline control slices”. Turning to `O=C(/C=C/c1ccc(O)c(O)c1)O[C@H]1C[C@@](O)(C(=O)O)C[C@H](O)[C@@H]1O` [5-CQA, 5-O-caffeoylquinic acid], the “Tension in the ileum” value in data set [3] amounted to 0.293 ± 0.068 g.
